Data on 5 molecules can be found in patent US6960566B1, “Compositions and methods for treatment of cancer” (The Wister Institute of Anatomy and Biology, priority 1998, dated 2005).

The subject of experiment [1] is BR55-2. Description: ELISA, binding of MAb BR55-2 to monovalent peptide. The following applies: series of ELISA assays. From the text: The Trp residue occupies a volume associated with the Fuca 1,3 moiety, and the Leu residue occupies the volume of the β Gal moiety and has the hydrophobic interaction of β Gal. The Tyr residue occupies a position not associated with LeY binding to B3. The computer modeling disclosed that the low energy binding mode conformation adopts a turn region similar to that observed for the YPY motif in binding to ConA [Kaur et al., 1997, J. Biol. Chem. 272:5539-5543]. This conformation lends itself to the Tyr residue of the peptide to potentially interact with several residues in CDR2 of the heavy chain of B3 that include Asp H53, Ser H52, Ser H55, or Ser H56.
(In general: An ELISA detects its analyte on a solid surface through an enzyme-linked reagent.)

The next experiment has as its system BR15-6A MAb. Description: ELISA, binding of MAb BR15-6A to solid phase coated peptide. The following applies: solid phase coated peptide at 1 nM to 1 mM. As for the experimental part:
Peptide SEQ ID NO: 99 from the family of LeY-mimicking peptides was selected because it contained a consensus motif which appeared in multiple bacterial isolates after five rounds of panning with the BR15-6A MAb. This peptide was chemically synthesized and its binding to BR15-6A MAb was evaluated. […] It likely represents a conformational mimic of the LeY structure. This peptide is further evaluated in competition assays with native LeY containing neoglycoprotein and LeY-specific MAbs BR15-6A and BR55-2.

In the next experiment the test system is MAb BR15-6A. Description: Inhibition of MAb BR15-6A binding to LeY carbohydrate. On the procedure: (§1) The peptide competition/inhibition assays referred to throughout the following examples are performed as follows: Test peptides at concentrations ranging from 10 nM to 1 mM were preincubated with 100 μl of the MAb NS19-9 (5 μg/ml) diluted in 10% […] free horse serum/PBS at room temperature. Fifty μl of preincubated inhibition complex antibody-peptide is added to each well of 96-well plate and incubated at 30-37° C. for 1 hour. […] The developed blue color was read at 450 nm after stopping the reaction with 100 μl 1M phosphoric acid. Fifty % inhibitory concentration (IC50) was calculated by non-linear least-squares regression to a four-parameter logistic equation. […]
Peptide SEQ ID NO: 99 from the family of LeY-mimicking peptides was selected because it contained a consensus motif which appeared in multiple bacterial isolates after five rounds of panning with the BR15-6A MAb. This peptide was chemically synthesized and its binding to BR15-6A MAb was evaluated. […] This peptide is further evaluated in competition assays with native LeY containing neoglycoprotein and LeY-specific MAbs BR15-6A and BR55-2.

Experiment [2] deals with BR55-2. The experiment in a line: Competition of peptide with LeY for BR55-2 binding.
The test system of experiment [3] is neutrophil influx into chemically irritated peritoneum. Description: Neutrophil recruitment in Zymosan-induced peritonitis (acute inflammation model in vivo). The following applies: mice, Zymosan i.p. As for the experimental part:
The accumulation of neutrophils is a characteristic feature of acute and chronic inflammatory disease, and early steps in the recruitment of these cells to the site of inflammation depends upon E-selectin-mediated interaction. Thus, inhibition of neutrophil recruitment in vivo is an important test of the ability of potential therapeutic agents to inhibit E-selectin-mediated events. […] Because SA-Le^a binds to E-selectin, the adhesion-blocking ability of an SA-Le^a peptido-mimetic was measured in a neutrophil-recruitment in vivo model of acute inflammation.
The bioactivity of the 12-mer peptide SEQ ID NO: 1 which mimics the SA-Le^a carbohydrate structure was determined by administering Zymosan™ intraperitoneally (i.p.) into mice [see, e.g., Martens et al. 1995, J. Biol. Chem. 270:21129-21136; Rao et al. 1994, J. Biol. Chem. 269:19663-19666], followed three hours later by an intravenous (i.v.) injection of peptide SEQ ID NO: 1 (1 mg). Neutrophils were harvested and counted one hour later.
Derm. 78:206-209]. […] The reduction in enzyme activity is apparently due to reduction in neutrophil recruitment in mice treated with peptide mimicking E-selectin ligand SA-Le^a. This peptide inhibits E-selectin function in vivo.

Experiment [4] relates to MAb NS19-9. Description: ELISA, direct binding of MAb NS19-9 to peptide.
The test system of experiment [5] is MAb NS19-9. Description: Competition ELISA: peptide inhibition of MAb NS19-9 binding to solid phase SA-Le^a-PAA. As for the experimental part: as §1, with “hour. After 1 hour of incubation, MAb/peptide complex mixtures were transferred to wells precoated with a constant amount of neoglycoprotein containing coupled multivalent carbohydrate determinant (SA-Le^a-polyacrylamide matrix (SA-LeX-PAA or LeY-PAA) (5 μg/well) and allowed to bind for 1 hour followed by blocking with 10% γ-globulin-free horse serum for 2 hours at room temperature. Wells were washed with 100 μl PBS four times. Goat anti-mouse immunoglobulin G conjugated to horse radish peroxidase (Boehringer-Manheim, Indianapolis, Ind.) was diluted 1000-fold with 10% γ-globulin free horse serum/PBS and 100 μl was added in each well and incubated at 30-37° C. for 1 hour and washed with 100 μl PBS five times.” for “hour.”

The target in experiment [6] is MAb NS19-9. The experiment in a line: competition ELISA; peptide preincubated with MAb NS19-9, free MAb binding to SA-Le^a-PAA.

For orientation: IC50 means the concentration needed to halve the response being measured.

Entries after “also recorded” stand apart in the source; their conditions may differ.

Consider “APWLYGPA (peptido-mimetic of a Lewis antigen) [SEQ ID NO: 121]”, for which the “binding of BR55-2 to monovalent peptide (in words)” value in the experiment on BR55-2 [1] is reported as “does not bind”.
Consider “DEVRPDLISTEE (peptido-mimetic of a Lewis antigen) [SEQ ID NO: 99]”, for which the “binding of MAb BR15-6A to peptide (in words)” value with BR15-6A MAb is recorded as “Dose-dependent binding”. For the same molecule, the “inhibition of MAb BR15-6A binding to LeY (in words)” value in the experiment with MAb BR15-6A is given as “inhibit MAb BR15-6A binding”.
In the case of “FSLLW (peptido-mimetic of a Lewis antigen) [SEQ ID NO: 114]”, in the experiment on BR55-2 [2], the “competition with LeY for BR55-2 binding (in words)” value is recorded as “competes with LeY for BR55-2 binding”.
Regarding DLWDWVVGKPAG [SEQ ID NO: 1], the “myeloperoxidase activity in collected cells (in words)” value in experiment [3] (1 mg peptide i.v.) is “Significant reduction of enzymatic activity”. In experiment [3] (1 mg peptide i.v. three hours later, harvest one hour later), the “number of neutrophils in peritoneal lavage fluids (in words)” value was “reduced the number of neutrophils; also recorded: reduction of neutrophil influx; also recorded: partially inhibit neutrophil recruitment”. For the same molecule, the “binding of MAb NS19-9 to peptide (in words)” value in the experiment with MAb NS19-9 [4] is “dose-dependent binding”. Besides, the “blocking of MAb NS19-9 binding to SA-Le^a-PAA (in words)” value with MAb NS19-9 [5] is given as “blocked the binding of MAb NS 19-9”. Further, on MAb NS19-9 [5] (MAb NS19-9 5 μg/ml, solid phase SA-Le^a-PAA, read-out: IC50, blocking of MAb NS19-9 binding to SA-Le^a-PAA), the IC50 came out at 700 µM.

B1: peptide … (peptide)
peptide: DLWDWVVGKPAG
Consider B1, for which the concentration for half-maximal inhibition (IC50) with MAb NS19-9 [6] came to 700 µM.
